Consider 18 compounds from publication PMC5330453, “Synthesis and biological evaluation of dihydropyrano-[2,3-c]pyrazoles as a new class of PPARγ partial agonists” (PLoS ONE, 2017).

Each structure is given as a SMILES string. Where “and” joins values, the source holds several entries; their conditions need not be identical. Identical values can stand only once. Like-named read-outs stand apart in the source and are kept apart here. Where only a bound is given, the exact number is not on record here.

Assay [1] concerns the target T1, hPPARγ LBD (Homo sapiens, UniProt P37231).
T1 sequence (P37231 238-503 limits assumed): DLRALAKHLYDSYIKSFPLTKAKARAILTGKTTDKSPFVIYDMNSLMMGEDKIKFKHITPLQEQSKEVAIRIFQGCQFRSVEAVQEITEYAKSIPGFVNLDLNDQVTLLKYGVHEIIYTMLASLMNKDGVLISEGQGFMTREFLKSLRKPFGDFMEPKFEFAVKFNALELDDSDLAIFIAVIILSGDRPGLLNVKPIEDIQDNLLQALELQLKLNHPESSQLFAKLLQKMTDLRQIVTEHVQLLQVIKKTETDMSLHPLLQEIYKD
The experiment in a line: TR-FRET competitive binding assay (LanthaScreen), displacement of a fluorescent pan PPAR agonist tracer. Particulars: GST-tagged PPARγ-LBD, 10 concentrations 3 nM to 500 μM, triplicate. For orientation: Time-resolved FRET reads energy transfer from a long-lived donor to a nearby acceptor.
Experimental: IC50 values for respective compounds were determined by competitive binding using time-resolved fluorescence resonance energy transfer (LanthaScreen, Invitrogen) on a Victor2 microplate reader (PerkinElmer). Briefly, a terbium labeled anti-GST antibody was used to label purified GST-tagged PPARγ-LBD (ligand binding domain). Energy transfer from terbium to the tracer, a fluorescent pan PPAR agonist, enabled read-out of each test compounds’s ability to displace the tracer. RFU values from dose-response curves (triplicate sampling) for test compounds as well as positive controls (rosiglitazone) were then analyzed using GraphPad Prism [33]. An unrestrained sigmoidal (one-binding site) dose-response curve was fitted to each data set by linear regression and allowing for determination of IC50 values.

Another assay relates to PPARγ. Also on record: method as in PMID 23432662. Particulars: earlier study; read-out: inhibitor activity IC50; cited from earlier work.
Assay [2] concerns adipocyte differentiation. Also on record: method as in PMID 23432662. Particulars: earlier study; cited from earlier work.
Assay [3] addresses T1, hPPARγ LBD. As to the kind of experiment: Nuclear receptor-LBD transactivation (Gal4-LBD luciferase reporter) in mouse embryo fibroblasts. In kind it is cell-based. Also on record: expressed in transfected cells; host or cells: mouse embryo fibroblasts (MEFs). As to conditions: for transactivation selectivity towards all three PPAR subtypes: compared with PPARα and PPARδ transactivation; for induction of transcriptional activation (in words): cell based transactivation assay. An excerpt:
Mouse embryo fibroblasts (MEFs) were propagated in Dulbeccos Modified Eagle’s Media (DMEM) supplemented with 10% FCS and antibiotics.
Cells (Hepa 1–6 were used for PPARα whereas MEFs were used for PPARγ, PPARδ and RXRα transfections) were transfected in solution by Metafectene (Biontex) lipofection, essentially according to the manufacturer’s instructions and seeded in media (MEM or DMEM supplemented with 10% fetal calf serum and antibiotics in 96-well dishes at 24000 cells/cm^2. The transfection plasmid mix included the Gal4-responsive luciferase reporter, the expression vector for the fusion between the Gal4 DNA-binding domain and the nuclear receptor ligand binding domains, and a CMV-Renilla luciferase normalization vector (pRL-CMV, Promega). Six hours after addition of transfection mix to the cells, the media was changed to media (MEM or DMEM) supplemented with vehicle (0.1% DMSO), positive control (1 μM Rosiglitazone, 30 nM GW7647, 1 μM L165041 or 0.2 μM LG1069 for PPARγ, PPARα, PPARδ and RXRα, respectively), or compound. Approx. 18 hours later, cells were harvested and lysates analyzed for Photinus and Renilla luciferase activity by luminometry. All data points were performed in at least triplicate and each sample measured in duplicate. Luminometer raw data was analyzed in Microsoft Excel spreadsheets and presented as column graphs depicting average values of triplicates and including standard deviations.
For orientation: A reporter such as luciferase makes a cellular process visible.

Where [4] appears, read: hPPARγ LBD ligand displacement IC50, TR-FRET.
Where [5] appears, read: read-out: hPPARγ LBD ligand displacement IC50, TR-FRET.

Usually IC50 stands for the concentration that gives 50% inhibition. Regarding `N#CC1=C(N)Oc2[nH]nc(-c3ccccc3)c2C1c1ccccc1` (centres unmarked) [10h, 6-Amino-3,4-diphenyl-1,4-dihydropyrano[2,3-c]pyrazole-5-carbonitrile], at hPPARγ LBD [1] (setting [4]), the IC50 was 173 µM and > 100 µM.
`CCCc1n[nH]c2c1C(c1cc(C)ccc1C)C(C#N)=C(N)O2` (centres unmarked) [10p, 6-Amino-4-(2,5-dimethylphenyl)-3-propyl-1,4-dihydropyrano[2,3-c]pyrazole-5-carbonitrile] displayed a half-maximal inhibitory concentration (IC50) on hPPARγ LBD [1] (setting [4]) of 91 µM.
Still for that read-out and setting: as for `Cc1cc(C)c(C2C(C#N)=C(N)Oc3[nH]nc(C)c32)cc1COc1ccc(Cl)c2cccnc12` (centres unmarked) [10s, 6-Amino-4-(5-(((5-chloroquinolin-8-yl)oxy)methyl)-2,4-dimethylphenyl)-3-methyl-1,4-dihydropyrano[2,3-c]pyrazole-5-carbonitrile], the figure is 14 µM.
With `Cc1cc(C)c([C@@H]2C(C#N)=C(N)Oc3n[nH]c(C)c32)cc1COc1ccc(Cl)cc1C` (stereo in doubt) [compound 4], the IC50 with PPARγ is 30 µM; on hPPARγ LBD [1] (setting [4]), 32 µM. Also, in assay [2], the “induction of adipocyte differentiation” value is listed as “relatively poor induction of adipocyte differentiation”.
For `Cc1n[nH]c2c1C(c1ccc(Cl)cc1Cl)C(C#N)=C(N)O2` (centres unmarked) [10x, 6-Amino-4-(2,4-dichlorophenyl)-3-methyl-1,4-dihydropyrano[2,3-c]pyrazole-5-carbonitrile], the IC50 on hPPARγ LBD [1] (setting [4]) turned out to be 59 µM.
With `CCCc1n[nH]c2c1C(c1ccc(C)cc1C)C(C#N)=C(N)O2` (centres unmarked) [10m, 6-Amino-4-(2,4-dimethylphenyl)-3-propyl-1,4-dihydropyrano[2,3-c]pyrazole-5-carbonitrile], the 50% inhibitory concentration (IC50) at hPPARγ LBD [1] (setting [4]) was 14 µM.
For `Cc1ccc(C)c(C2C(C#N)=C(N)Oc3c2c(C)nn3-c2ccc(Cl)cc2)c1` (centres unmarked) [10ae, 6-Amino-1-(4-chlorophenyl)-4-(2,5-dimethylphenyl)-3-methyl-1,4-dihydropyrano[2,3-c]pyrazole-5-carbonitrile], the IC50 at hPPARγ LBD [1] (setting [4]) is 0.52 µM and ≤ 1 µM. The “transactivation selectivity towards all three PPAR subtypes” value at hPPARγ LBD [3] was “selective against PPARγ”.
For the compound `Cc1ccc(C2C(C#N)=C(N)Oc3[nH]nc(Cc4ccccc4)c32)c(C)c1` (centres unmarked) [10c, 6-Amino-3-benzyl-4-(2,4-dimethylphenyl)-1,4-dihydropyrano[2,3-c]pyrazole-5-carbonitrile], the half-inhibitory concentration (IC50) at hPPARγ LBD [1] (setting [4]) is 104 µM and > 100 µM.
Take `Cc1ccc(C2C(C#N)=C(N)Oc3[nH]nc(-c4ccccc4)c32)c(C)c1` (centres unmarked) [10i, 6-Amino-4-(2,4-dimethylphenyl)-3-phenyl-1,4-dihydropyrano[2,3-c]pyrazole-5-carbonitrile]: on hPPARγ LBD [1] (setting [4]), the IC50 was found to be 75 µM.
On the same count and under the same terms, the result for `Cc1nn(-c2ccccc2)c2c1C(c1ccccc1)C(C#N)=C(N)O2` (centres unmarked) [10ad, 6-Amino-3-methyl-1,4-diphenyl-1,4-dihydropyrano[2,3-c]pyrazole-5-carbonitrile] reads 215 µM and > 100 µM.
In turn, `Cc1ccccc1C1C(C#N)=C(N)Oc2[nH]nc(Cc3ccccc3)c21` (centres unmarked) [10b, 6-Amino-3-benzyl-5(o-tolyl)-1,4-dihydropyrano[2,3-c]pyrazole-5-carbonitrile] displayed a half-inhibitory concentration (IC50) on hPPARγ LBD [1] (setting [4]) of 15.7 µM. In addition, the “induction of transcriptional activation (in words)” value at hPPARγ LBD [3] is “did not induce transcriptional activation”.
On hPPARγ LBD [1] (setting [4]), `COc1ccc(C2C(C#N)=C(N)Oc3[nH]nc(C)c32)c(C)c1C` (centres unmarked) [10y, 6-Amino-4-(4-methoxy-2,3-dimethylphenyl)-3-methyl-1,4-dihydropyrano[2,3-c]pyrazole-5-carbonitrile] came in with an IC50 of 87 µM.
Take `Cc1ccc(C)c(C2C(C#N)=C(N)Oc3[nH]nc(-c4ccccc4)c32)c1` (centres unmarked) [10g]: the half-maximal inhibitory concentration (IC50) at hPPARγ LBD [1] (setting [5]) is over 100 µM.
As for `Cc1ccccc1C1C(C#N)=C(N)Oc2c1c(C)nn2-c1ccc(Cl)cc1` (centres unmarked) [10af], the IC50 at hPPARγ LBD [1] (setting [5]) is at most 1 µM. In addition, the “transactivation selectivity towards all three PPAR subtypes” value on hPPARγ LBD [3] is reported as “selective against PPARγ”.
Consider `Cc1ccc(C2C(C#N)=C(N)Oc3[nH]nc(C)c32)c(C)c1` (centres unmarked) [10aa, 6-Amino-4-(2,4-dimethylphenyl)-3-methyl-1,4-dihydropyrano[2,3-c]pyrazole-5-carbonitrile], for which the IC50 on hPPARγ LBD [1] (setting [4]) was 407 µM and > 100 µM.
In turn, `CCCc1n[nH]c2c1C(c1ccc(Cl)cc1)C(C#N)=C(N)O2` (centres unmarked) [10n, 6-Amino-4-(4-chlorophenyl)-3-propyl-1,4-dihydropyrano[2,3-c]pyrazole-5-carbonitrile] had an IC50 on hPPARγ LBD [1] (setting [4]) of 31 µM.
`Cc1nn(-c2ccccc2)c2c1C(c1ccc(Cl)cc1Cl)C(C#N)=C(N)O2` (centres unmarked) [10ag, 6-Amino-4-(2,4-dichlorophenyl)-3-methyl-1-phenyl-1,4-dihydropyrano[2,3-c]pyrazole-5-carbonitrile] displayed an IC50 at hPPARγ LBD [1] (setting [4]) of 14 µM.
`Cc1nn(-c2ccccc2)c2c1C(c1ccc(Cl)cc1Cl)C(C#N)=C(N)O2` (centres unmarked) [10f]: on hPPARγ LBD [3], the “induction of transcriptional activation (in words)” value is given as “did not induce transcriptional activation”.
